Our source for the IC50 values is patent US20260138990A1, “TRICYCLIC FUSED IMIDAZOLE COMPOUNDS AS CD38 MODULATORS AND USES THEREOF” (AEOVIAN PHARMACEUTICALS, INC., priority 2023, published 2026).

One test concerns the target T1, mouse CD38 (Mus musculus, UniProt P56528).
T1 construct: purchased Bio-Techne GmbH 4947-AC
T1 sequence (P56528 1-304): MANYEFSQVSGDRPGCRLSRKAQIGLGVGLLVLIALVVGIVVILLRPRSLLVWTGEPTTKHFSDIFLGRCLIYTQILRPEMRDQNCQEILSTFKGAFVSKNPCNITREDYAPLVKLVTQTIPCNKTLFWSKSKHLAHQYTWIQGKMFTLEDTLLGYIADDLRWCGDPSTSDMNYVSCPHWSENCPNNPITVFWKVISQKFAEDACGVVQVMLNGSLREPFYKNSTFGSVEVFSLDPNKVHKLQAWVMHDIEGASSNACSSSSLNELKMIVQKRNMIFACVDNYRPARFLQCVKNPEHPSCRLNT
Nature of the test: NAD+ cyclase activity assay with mouse recombinant CD38 protein (ε-NAD fluorescence). Format: biochemical. As to conditions: 0.6 nM mouse CD38, substrate ε-NAD, 30 min preincubation, fluorescence 300/410 nm. In short, it runs like this:
(§1)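 Twelve-point threefold compound dilutions were given 30 min at room temperature with 0.6 nM mouse or 1.9 nM human CD38 before […] ε-NAD was added (pH 7.5 HEPES/sucrose/Tween buffer). The rate came from the linear-phase slope of ex 300/em 410 nm fluorescence against vehicle and no-CD38 controls.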

A further test concerns the target T2, human CD38 (Homo sapiens, UniProt P28907).
T2 construct: purchased Bio-Techne GmbH AVI2404
T2 sequence (P28907 1-300): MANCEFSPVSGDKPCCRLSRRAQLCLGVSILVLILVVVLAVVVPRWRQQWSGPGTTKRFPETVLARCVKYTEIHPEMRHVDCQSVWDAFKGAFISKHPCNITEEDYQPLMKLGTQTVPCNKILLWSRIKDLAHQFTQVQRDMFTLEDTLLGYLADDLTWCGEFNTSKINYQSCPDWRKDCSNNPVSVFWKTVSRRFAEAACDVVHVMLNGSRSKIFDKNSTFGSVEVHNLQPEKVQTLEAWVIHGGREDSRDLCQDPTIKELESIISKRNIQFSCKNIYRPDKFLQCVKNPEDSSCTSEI
Put plainly: NAD+ cyclase activity assay with human recombinant CD38 protein (ε-NAD fluorescence). The conditions noted are these: 1.9 nM human CD38, substrate ε-NAD, 30 min preincubation, fluorescence 300/410 nm. Format: biochemical. In a few lines:
as §1

`CS(=O)(=O)C1CCC(NC(=O)c2ccc3c(c2)-c2cncn2CCO3)CC1` (stereo not drawn) [Compound 146A, N-(4-(Methylsulfonyl)cyclohexyl)-5,6-dihydrobenzo[f]imidazo[1,5-d][1,4]oxazepine-10-carboxamide]: the 50% inhibitory concentration (IC50) at mouse CD38 was in the range of 0.01 to 0.1 µM; on human CD38, 0.03 to 0.1 µM.

Turning to `O=C(N[C@H]1CC[C@H](O[C@H]2C[C@@H](F)C2)CC1)c1ccc2c(c1)-c1cncn1CCO2` [Compound 147A, N-((1r,4r)-4-((1s,3s)-3-Fluorocyclobutoxy)cyclohexyl)-5,6-dihydrobenzo[f]imidazo[1,5-d][1,4]oxazepine-10-carboxamide], the IC50 at mouse CD38 was 0.001 to 0.01 µM; at human CD38, less than 0.03 µM.

In the case of `O=C(N[C@H]1CC[C@H](O[C@H]2C[C@H](F)C2)CC1)c1ccc2c(c1)-c1cncn1CCO2` [Compound 148A, N-((1r,4r)-4-((1r,3r)-3-Fluorocyclobutoxy)cyclohexyl)-5,6-dihydrobenzo[f]imidazo[1,5-d][1,4]oxazepine-10-carboxamide], the IC50 was 0.001 to 0.01 µM on mouse CD38 and less than 0.03 µM on human CD38.

Regarding `O=C(N[C@H]1CC[C@@H](O[C@H]2C[C@@H](F)C2)CC1)c1ccc2c(c1)-c1cncn1CCO2` [Compound 149A, N-((1s,4s)-4-((1s,3s)-3-Fluorocyclobutoxy)cyclohexyl)-5,6-dihydrobenzo[f]imidazo[1,5-d][1,4]oxazepine-10-carboxamide], the figures for the IC50 on mouse CD38 and on human CD38 were 0.01 to 0.1 µM and 0.1 to 1 µM, respectively.

In the case of `O=C(N[C@H]1CC[C@@H](O[C@H]2C[C@H](F)C2)CC1)c1ccc2c(c1)-c1cncn1CCO2` [Compound 150A, N-((1s,4s)-4-((1r,3r)-3-Fluorocyclobutoxy)cyclohexyl)-5,6-dihydrobenzo[f]imidazo[1,5-d][1,4]oxazepine-10-carboxamide], the values for the IC50 at mouse CD38 and on human CD38 were greater than 0.1 µM and 0.1 to 1 µM, respectively.

On to `O=C(NC1CCCC(C(F)(F)F)C1)c1ccc2c(c1)-c1cncn1CCO2` (stereo not drawn) [Compound 151A, N-(3-(Trifluoromethyl)cyclohexyl)-5,6-dihydrobenzo[f]imidazo[1,5-d][1,4]oxazepine-10-carboxamide], for which the IC50 at mouse CD38 is 0.001 to 0.01 µM; on human CD38, less than 0.03 µM.

Regarding `O=C(N[C@H]1CC[C@H](OC2CC(F)(F)C2)CC1)c1ccc2c(c1)-c1cncn1CCO2` [Compound 152A, N-((1r,4r)-4-(3,3-Difluorocyclobutoxy)cyclohexyl)-5,6-dihydrobenzo[f]imidazo[1,5-d][1,4]oxazepine-10-carboxamide], the figures for the IC50 at mouse CD38 and at human CD38 were 0.001 to 0.01 µM and less than 0.03 µM, respectively.

On to `O=C(N[C@H]1CC[C@@H](OC2CC(F)(F)C2)CC1)c1ccc2c(c1)-c1cncn1CCO2` [Compound 153A, N-((1s,4s)-4-(3,3-Difluorocyclobutoxy)cyclohexyl)-5,6-dihydrobenzo[f]imidazo[1,5-d][1,4]oxazepine-10-carboxamide], for which the IC50 was in the range of 0.01 to 0.1 µM on mouse CD38 and 0.1 to 1 µM on human CD38.

Regarding `O=C(NC1CCC(F)(F)CC1)c1cc2c(c(F)c1F)OCCn1cncc1-2` [Compound 154A, N-(4,4-Difluorocyclohexyl)-8,9-difluoro-5,6-dihydrobenzo[f]imidazo[1,5-d][1,4]oxazepine-10-carboxamide], the half-inhibitory concentration (IC50) is less than 0.001 µM on mouse CD38 and less than 0.03 µM on human CD38.

For `O=C(N[C@H]1CC[C@H](OCC(F)(F)F)CC1)c1cc(F)c2c(c1)-c1cncn1CCO2` [Compound 155A, 8-Fluoro-N-((1r,4r)-4-(2,2,2-trifluoroethoxy)cyclohexyl)-5,6-dihydrobenzo[f]imidazo[1,5-d][1,4]oxazepine-10-carboxamide], the IC50 on mouse CD38 is less than 0.001 µM; on human CD38, less than 0.03 µM.

Take `O=C(N[C@H]1CC[C@@H](OCC(F)(F)F)CC1)c1cc(F)c2c(c1)-c1cncn1CCO2` [Compound 156A, 8-Fluoro-N-((1s,4s)-4-(2,2,2-trifluoroethoxy)cyclohexyl)-5,6-dihydrobenzo[f]imidazo[1,5-d][1,4]oxazepine-10-carboxamide]: the figures for the IC50 on mouse CD38 and at human CD38 were 0.01 to 0.1 µM and 0.03 to 0.1 µM, respectively.

Turning to `O=C(N[C@H]1CC[C@H](OCC(F)(F)F)CC1)c1cc(Cl)c2c(c1)-c1cncn1CCO2` [Compound 157A, 8-Chloro-N-((1r,4r)-4-(2,2,2-trifluoroethoxy)cyclohexyl)-5,6-dihydrobenzo[f]imidazo[1,5-d][1,4]oxazepine-10-carboxamide], the IC50 at mouse CD38 was less than 0.001 µM; at human CD38, less than 0.03 µM.

Take `O=C(N[C@H]1CC[C@@H](OCC(F)(F)F)CC1)c1cc(Cl)c2c(c1)-c1cncn1CCO2` [Compound 158A, 8-Chloro-N-((1s,4s)-4-(2,2,2-trifluoroethoxy)cyclohexyl)-5,6-dihydrobenzo[f]imidazo[1,5-d][1,4]oxazepine-10-carboxamide]: the IC50 at mouse CD38 was 0.001 to 0.01 µM; at human CD38, 0.03 to 0.1 µM.

On to `O=C(NC1CC2(CCC2)C1)c1cc(F)c2c(c1)-c1cncn1CCO2` [Compound 159A, 8-Fluoro-N-(spiro[3.3]heptan-2-yl)-5,6-dihydrobenzo[f]imidazo[1,5-d][1,4]oxazepine-10-carboxamide], for which the 50% inhibitory concentration (IC50) on mouse CD38 was less than 0.001 µM; at human CD38, less than 0.03 µM.

Consider `O=C(NC1CC2(COC2)C1)c1cc(F)c2c(c1)-c1cncn1CCO2` [Compound 160A, 8-Fluoro-N-(2-oxaspiro[3.3]heptan-6-yl)-5,6-dihydrobenzo[f]imidazo[1,5-d][1,4]oxazepine-10-carboxamide], for which the IC50 on mouse CD38 was 0.001 to 0.01 µM; on human CD38, 0.03 to 0.1 µM.

Turning to `O=C(NC1CCCC(C(F)(F)F)C1)c1cc(F)c2c(c1)-c1cncn1CCO2` (stereo not drawn) [Compound 161A, 8-Fluoro-N-(3-(trifluoromethyl)cyclohexyl)-5,6-dihydrobenzo[f]imidazo[1,5-d][1,4]oxazepine-10-carboxamide], the IC50 at mouse CD38 is 0.001 to 0.01 µM; at human CD38 it was less than 0.03 µM.

Take `CC1(NC(=O)c2cc(F)c3c(c2)-c2cncn2CCO3)CCCCC1` [Compound 162A, 8-Fluoro-N-(1-methylcyclohexyl)-5,6-dihydrobenzo[f]imidazo[1,5-d][1,4]oxazepine-10-carboxamide]: the IC50 fell in the range of 0.01 to 0.1 µM on mouse CD38 and 0.03 to 0.1 µM on human CD38.

Consider `CC1(NC(=O)c2cc(Cl)c3c(c2)-c2cncn2CCO3)CCCCC1` [Compound 163A, 8-Chloro-N-(1-methylcyclohexyl)-5,6-dihydrobenzo[f]imidazo[1,5-d][1,4]oxazepine-10-carboxamide], for which the results for the IC50 on mouse CD38 and on human CD38 were 0.001 to 0.01 µM and less than 0.03 µM, respectively.

`O=C(NC1CCC(CC(F)(F)F)CC1)c1cc(F)c2c(c1)-c1cncn1CCO2` (stereo not drawn) [Compound 164A, 8-Fluoro-N-(4-(2,2,2-trifluoroethyl)cyclohexyl)-5,6-dihydrobenzo[f]imidazo[1,5-d][1,4]oxazepine-10-carboxamide]: the IC50 at mouse CD38 is 0.001 to 0.01 µM; at human CD38, less than 0.03 µM.

In the case of `O=C(NC1CCC(CC(F)(F)F)CC1)c1cc(Cl)c2c(c1)-c1cncn1CCO2` (stereo not drawn) [Compound 165A, 8-Chloro-N-(4-(2,2,2-trifluoroethyl)cyclohexyl)-5,6-dihydrobenzo[f]imidazo[1,5-d][1,4]oxazepine-10-carboxamide], the IC50 at mouse CD38 was 0.001 to 0.01 µM; on human CD38, less than 0.03 µM.

`O=C(N[C@H]1CC[C@H](OC2CC(F)(F)C2)CC1)c1cc(F)c2c(c1)-c1cncn1CCO2` [Compound 166A, N-((1r,4r)-4-(3,3-Difluorocyclobutoxy)cyclohexyl)-8-fluoro-5,6-dihydrobenzo[f]imidazo[1,5-d][1,4]oxazepine-10-carboxamide]: the IC50 at mouse CD38 is 0.001 to 0.01 µM; at human CD38, less than 0.03 µM.

Consider `O=C(N[C@H]1CC[C@@H](OC2CC(F)(F)C2)CC1)c1cc(F)c2c(c1)-c1cncn1CCO2` [Compound 167A, N-((1s,4s)-4-(3,3-Difluorocyclobutoxy)cyclohexyl)-8-fluoro-5,6-dihydrobenzo[f]imidazo[1,5-d][1,4]oxazepine-10-carboxamide], for which the figures for the IC50 on mouse CD38 and at human CD38 were 0.01 to 0.1 µM and 0.1 to 1 µM, respectively.

Consider `CC(C)(CO[C@H]1CC[C@@H](NC(=O)c2cc(F)c3c(c2)-c2cncn2CCO3)CC1)C(F)(F)F` [Compound 168A, 8-Fluoro-N-((1s,4s)-4-(3,3,3-trifluoro-2,2-dimethylpropoxy)cyclohexyl)-5,6-dihydrobenzo[f]imidazo[1,5-d][1,4]oxazepine-10-carboxamide], for which the IC50 was greater than 0.1 µM on mouse CD38 and 0.1 to 1 µM on human CD38.

Consider `CC1(NC(=O)c2cc(F)c3c(c2)-c2cncn2CCO3)CCS(=O)(=O)C1` (stereo not drawn) [Compound 169A, 8-Fluoro-N-(3-methyl-1,1-dioxidotetrahydrothiophen-3-yl)-5,6-dihydrobenzo[f]imidazo[1,5-d][1,4]oxazepine-10-carboxamide], for which the values for the concentration for half-maximal inhibition (IC50) at mouse CD38 and at human CD38 were 0.01 to 0.1 µM and 0.03 to 0.1 µM, respectively.
